Results reported in the METLIN SMRT retention time set (Domingo-Almenara et al. 2019).

Test: gradient 5% acetonitrile 3 min, to 50% in 2 min, to 85% in 15 min, held 3 min, 100 µL/min
Conditions: column: Zorbax Extend-C18 2.1 x 50 mm; eluents: water / acetonitrile, 0.1% formic acid
Outline: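 Retention times come from adduct peaks that were picked computationally and then checked by hand. The standards, pure and pooled in mixtures of ~100 molecules, were run on a Zorbax Extend-C18 column (2.1 × 50 mm, 1.8 μm) at 100 μL/min with water and acetonitrile, each with 0.1% formic acid. Detection was by quadrupole time-of-flight mass spectrometry in positive and negative ionization mode, with a dead volume of 40 μL and a dwell volume of 900 μL.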

Structure (SMILES) | RP-LC retention time
CN(C)C(=O)c1ccc2c(c1)N(CC(=O)N1CCN(c3ccccn3)CC1)C(=O)CO2 | 784 s
Cc1c(S(=O)(=O)NC2CCCc3ccccc32)cc(C(=O)N2CCCCC2)n1C (stereo not drawn) | 907 s
CCCCN1CCN(C(=O)C2c3ccccc3CCN2C(=O)CC)CC1 (stereo not drawn) | 626 s
O=C(Cc1cccc(F)c1)Nc1ccc2c(c1)CCC(=O)N2 | 650 s
COc1ccc(NC(=O)C2CCN(c3cc(N4CCCCC4)ncn3)CC2)c(OC)c1 | 694 s
O=C(NC1CCSC1=O)c1ccc(-n2cccn2)nn1 (stereo not drawn) | 657 s
O=[N+]([O-])c1ccc(CNc2nc(NCc3cccc(C(F)(F)F)c3)nc3nc[nH]c23)cc1 | 790 s
CC(=O)N1CCc2cc(N3CC(C(=O)Nc4cccc(Br)c4)CC3=O)ccc21 (stereo not drawn) | 780 s
CCc1nc2nc3c(cn2n1)C(=O)CC(C)(C)C3 | 693 s
COc1ccc(N2C(=O)C3(CCCCC3)C2C(=O)N(C)C)cc1 (stereo not drawn) | 750 s
COc1cc(NC(=O)c2sc(-c3cn(C(C)C)c4ncccc34)nc2C)cc(OC)c1 | 1030 s
COc1ccc(-c2nnc(SCc3ccc(C#N)cc3)o2)cc1 | 948 s
CCOc1ccc(-c2csc(NC(=O)CCCOc3ccc(Cl)cc3)n2)cc1 | 810 s
CC(C)CC(=O)N1CC[C@@H]2COCCN(C)[C@@H]2C1 | 575 s
Cc1noc(-c2ccc(SCC(=O)Nc3ccc(S(N)(=O)=O)cc3)nc2)n1 | 705 s
CCN1C[C@]2(C)CC[C@H](OC)[C@]34C2[C@H](OC(C)=O)[C@@]2(OCO[C@@]25CC(OC)[C@H]2C[C@]3(O)C5[C@H]2OC)C14 (stereo partly drawn) | 662 s
CN1C(=O)c2cccn2CC1C(=O)Nc1ccc(F)cc1 (stereo not drawn) | 677 s
NC(=O)C1Cc2ccccc2N1C(=O)c1ccc([N+](=O)[O-])o1 (stereo not drawn) | 633 s
CCCN(CCC)C(=O)C1COC2(CCN(C(=O)c3ccco3)CC2)N1C(=O)c1ccccc1 (stereo not drawn) | 778 s
O=C(NCc1ccco1)C1CCN(S(=O)(=O)c2cc(C(=O)N3CCCC3)cs2)CC1 | 715 s
Brc1cccc(-c2nnc(Cc3nc(-c4cccnc4)no3)o2)c1 | 845 s
CCOc1ccc(N2C(=O)C3N=NN(Cc4nc(-c5ccc(OC(C)C)cc5)no4)C3C2=O)cc1 (stereo not drawn) | 1120 s
COc1ccccc1N1CCN(c2cc(SCC(=O)Nc3ccc(Cl)cc3)ncn2)CC1 | 1080 s
O=C(N[C@H](Cc1ccccc1)C(=O)NCc1cscn1)c1cccc(F)c1 | 762 s
O=C(Nc1cccc(F)c1)Nc1cccc(-c2ccc(N3CCOCC3)nn2)c1 | 697 s

Structure (SMILES) | RP-LC retention time
c1cn(-c2cc(NC3CCCC3)ncn2)cn1 | 613 s
O=C(O)CCc1conc1-c1ccc(F)cc1 | 708 s
O=C(CN1CCN(C(=O)Nc2ccc(Cl)cc2)CC1=O)N1CCN(C2CCCCC2)CC1 | 624 s
COc1ccc(OC)c(S(=O)(=O)Nc2cc(-c3nc4cccnc4s3)ccc2C)c1 | 888 s
Cc1ccccc1-c1csc(Cc2nc(-c3ccc(Cl)cc3)no2)n1 | 1330 s
O=C1NC2CCCCC2=C1CC(=O)N1CCCCC1 (stereo not drawn) | 633 s
Cc1ccccc1NS(=O)(=O)c1cc2n(c1)CCN(CC(C)C)C2=O | 795 s
CCN1C(=O)COc2ccc(-c3noc(/C=C/c4ccc(OC)cc4)n3)cc21 | 1130 s
COc1cccc(-n2ccn3cc(-c4ccc(Cl)cc4)nc3c2=O)c1 | 875 s
CS(=O)(=O)N(C1CCOCC1)C1CN(C(=O)COc2ccccc2)C1 | 692 s
COc1ccc(NC(=O)N2CCC3(CC2)NC(=O)c2cc(Cl)ccc2N3C)cc1OC | 722 s
COc1ccccc1-c1nnc(NC(=O)C2CC(=O)N(c3ccc(F)cc3)C2)o1 (stereo not drawn) | 652 s
CC(C)Cc1cc(-c2nn3c(CSc4ccccc4)nnc3s2)n[nH]1 | 948 s
CCCS(=O)(=O)c1nc2ccc(NS(=O)(=O)c3ccc(C(C)(C)C)cc3)cc2s1 | 1110 s
Fc1ccc(Nc2c(-c3ccccc3)nc3ccccn23)cc1 | 689 s
CC(C)C(=O)NC(c1ccc(F)cc1)c1nnc(-c2ccccc2)o1 (stereo not drawn) | 856 s
COc1ccc(C2CC(=O)Nc3c(C(=O)O)cn(-c4cccc(C(F)(F)F)c4)c32)cc1OC (stereo not drawn) | 780 s
COc1ccc(NC(=O)c2cnc3c(c2)c(=O)n(C)c(=O)n3-c2ccc(F)cc2)cc1 | 856 s
O=C(Nc1ccc(N2CCOCC2)cc1)C1CCCN(c2nnc3ccccn23)C1 (stereo not drawn) | 600 s
Cc1nc(C)c(C(=O)N2CCCCCCNC(=O)[C@@H]3CCCC[C@@H]32)s1 | 727 s
CSc1cccc(NC(=O)N2CCN(C)CC2)c1 | 647 s
O=C(NCCn1cnc2cc(C(=O)N3CCCC3)ccc21)Nc1ccc2c(c1)CCC2 | 645 s
Cc1ccc(C)c(S(=O)(=O)N2CCC3(CC2)NCCCN=C3NC2CCCCC2)c1 | 648 s
CC12CCC3C(CC=C4CC(O)CCC43C)C1C/C(=C\N1CCCC1)C2=O (stereo not drawn) | 943 s
O=C(c1cn2ccnc(-c3ccc(F)cc3)c2n1)N1CCN(C(=O)c2ccco2)CC1 | 693 s

The next lines start with the values.

RP-LC retention time | Structure (SMILES)
1030 s | CC(C)c1ccc(S(=O)(=O)N2CCC(C(=O)NCc3csc(-c4cccs4)n3)CC2)cc1
946 s | Cc1noc(-c2ccnc(-n3ncc(C(=O)N4CCC(C)CC4)c3C)c2)n1
806 s | COCc1cc(=O)n(Cc2cccc(F)c2)c(N2CCCC2)n1
914 s | Cc1cccc(S(=O)(=O)N2C[C@H](c3nc(-c4cccnc4)no3)[C@@H](C)C2)c1
842 s | CCOC(=O)C1=C(C)NC(=O)NC1c1cn(-c2ccccc2)nc1-c1ccc(OC)cc1 (stereo not drawn)
847 s | O=C(NCCc1csc(-c2cccc(F)c2)n1)c1ccc2c(c1)OCO2
816 s | CCOC(=O)c1c(C)[nH]c(CCC(=O)NCc2ccc(C)o2)c1C
707 s | CCCNc1cc(N2CCCC(CCC(=O)Nc3ccc(OC)cc3OC)C2)ncn1 (stereo not drawn)
1030 s | CCOC(=O)c1noc2nc(C)nc(NCc3ccc(F)cc3)c12
1010 s | CCc1ccc(C(C)NC(=O)c2nnc(-c3ccc(S(=O)(=O)N(C)C)cc3)o2)cc1 (stereo not drawn)
798 s | COc1ccc(CNC(=O)C2CCCN(c3ccc(=O)n(-c4cccc(Cl)c4)n3)C2)cc1OC (stereo not drawn)
916 s | O=C(NCc1ccc(Cl)cc1)C1CCN(S(=O)(=O)c2cc(C(=O)N3CCCC3)cs2)CC1
630 s | CCc1ccc2[nH]c3c(c(=O)c2c1)CN(CC(=O)NC1CCCCC1)CC3
642 s | O=C1CC(c2noc(-c3ccccc3)n2)CN1Cc1ccccc1 (stereo not drawn)
950 s | Cc1nn(-c2ccccc2)c(C)c1S(=O)(=O)N1CCC(C(=O)Nc2ccccc2F)CC1
1270 s | CCC(C)n1c(=O)c2ccccc2n(Cc2nc(-c3cccc(Cl)c3)no2)c1=O (stereo not drawn)
858 s | COc1ccc(N2CC(c3noc(-c4ccccc4OC)n3)CC2=O)cc1 (stereo not drawn)
1180 s | CCCCCn1c(=O)c2ccccc2n(Cc2nc(-c3ccc4c(c3)OCO4)no2)c1=O
940 s | CCOC(=O)c1cc(S(=O)(=O)N2CCCC2C(=O)Nc2ccc(F)cc2C)cn1C (stereo not drawn)

RP-LC retention time | Structure (SMILES)
904 s | CCc1noc(NC(C)=O)c1-c1ccc(C)c(S(=O)(=O)Nc2c(C)cc(C)cc2C)c1
917 s | Cc1oc(C2CCN(C(=O)Nc3cc(F)cc(F)c3)CC2)nc1C(=O)N1CCCC1
577 s | O=C(NCc1ccc2c(c1)OCO2)C1CCN(CCc2c[nH]c3ncccc23)CC1
773 s | Cc1cc(C)cc(NC(=O)CN2C(=O)COc3ccc(C(=O)N4CCCC4)cc32)c1
1020 s | COc1cccc(-c2noc(CN3C(=O)COc4cc(Cl)ccc43)n2)c1OC
959 s | Cc1ccccc1CNS(=O)(=O)c1ccc(-c2c(C)noc2C)cc1
668 s | CCC1CN2C=Nc3oc(C)c(C(=O)Nc4ccccc4OC)c3C2=N1 (stereo not drawn)
619 s | CCCCC(=O)Nc1ccc2c(c1)nc(CN1CCN(C(=O)c3ccco3)CC1)n2C
616 s | Cc1ccc2nc(Nc3nccc(C)n3)nc(C)c2c1
814 s | O=C(CCCN1CCN(Cc2ccc(F)cc2)C(=O)C1=O)Nc1ccc(Br)cc1F
1010 s | O=C(NCc1ccc(C(F)(F)F)cc1)c1c(O)c2cccnc2[nH]c1=O
622 s | O=C(NCc1ccccn1)C1CCN(C(=O)c2ncn3c2COC(c2ccc(F)cc2)C3)CC1 (stereo not drawn)
985 s | CCOC(=O)Cn1c(=O)c2c(nc3n2CC(C)CN3CCc2ccccc2)n(C)c1=O (stereo not drawn)
1240 s | CCCCOc1ccc(C(=O)Nc2nc(-c3ccc(OC)c(C)c3)cs2)cc1
978 s | Cc1nc(-c2csc(S(=O)(=O)N3CCCC(C(=O)Nc4cccc(F)c4)C3)c2)no1 (stereo not drawn)
874 s | CC(C)n1nc(CNC(=O)c2ccccn2)c2ccccc21
1030 s | CCc1nc2cc(-c3noc(Cc4ccsc4)n3)ccc2o1
648 s | CCc1nnc2nc(N3CCN(C(=O)COc4ccc(Cl)cc4)CC3)cc(C)n12
659 s | Cc1ccc(CN2CCC(CNC(=O)c3noc(C)c3Cn3nc(C)cc3C)C2)cc1 (stereo not drawn)
